Columns and labels:
[1] = system: NO metabolite (NOx:NO2+NO3); experiment: Plasma NO metabolite (NOx) after oral administration to rabbits (Experimental Example 2); assay type: in vivo; settings: male New Zealand rabbits, fasted 16 hr, oral by sonde, groups 1 and 2: 2.85 mmol/kg, group 3: 1.43 mmol/kg each
Method: (§1) 14-Week-old male New Zealand rabbits (KITAYAMA LABES Co., Ltd.) were purchased, preliminarily bred for 28 days and divided into 3 groups (n=3 or 4). After fasting for 16 hr, L-citrulline and L-arginine were orally administered to the rabbits of group 1 and group 2, respectively, by a sonde to achieve 2.85 mmol/kg per rabbit for both (499.3 mg/kg and 496.5 mg/kg, respectively). Moreover, L-citrulline and L-arginine were orally administered to the rabbits of group 3 by a sonde to achieve 1.43 mmol/kg per rabbit (250.5 mg/kg and 249.1 mg/kg, respectively).
(§2) The blood was collected from the ear vein before administration, and 30 min, 1, 2 and 4 hr after administration, and subjected to quantification of L-arginine, NO metabolite and cGMP in plasma. The blood was collected in a 1.5 mL tube containing 1% heparin dispensed thereto in advance (for quantification of L-arginine) and a disodium ethylenediaminetetraacetate (EDTA-2Na)-added tube (for quantification of NO metabolite and cGMP), and centrifuged (12000 rpm, 10 min, 4° C.) to give plasma. In heparin plasma thereafter, 3% sulfosalicylic acid in the same amount as the plasma was added and blended, and the mixture was stood still on ice for 1 hr and centrifuged (12000 rpm, 10 min, 4° C.) to give deproteinized plasma as a sample for analysis.
(§3) L-arginine in the sample for analysis was quantified using an automatic amino acid analyzer (JOEL JLC-500/V), NO metabolite (NOx:NO2+NO3) was quantified using a nitrogen oxide analyzer (Eicom ENO10), and cGMP was quantified by […] (Amersham Pharmacia RPN226).
(§4) Moreover, the area under the blood concentration-time curves of L-arginine, NO metabolite and cGMP in plasma were calculated, and the results are shown in Table 2-Table 4.

cGMP = experiment: Plasma cGMP after oral administration to rabbits (Experimental Example 2); assay type: in vivo; settings: male New Zealand rabbits, fasted 16 hr, oral by sonde, groups 1 and 2: 2.85 mmol/kg, group 3: 1.43 mmol/kg each
Method: as §1, §2, §3, §4

| SMILES | AUC of NO metabolite in plasma, 0-30 min [1] | AUC of NO metabolite in plasma, 0-1 hr [1] | AUC of cGMP in plasma, 0-30 min (cGMP) | AUC of cGMP in plasma, 0-1 hr (cGMP) |
| --- | --- | --- | --- | --- |
| NC(=O)NCCC[C@H](N)C(=O)O [group 1, L-citrulline] | 8.1 nmol·h/mL | 25.7 nmol·h/mL | 0.033 nmol·h/mL | 0.12 nmol·h/mL |
| N=C(N)NCCC[C@H](N)C(=O)O [group 2, L-arginine] | 0.3 nmol·h/mL | 10.1 nmol·h/mL | 0.028 nmol·h/mL | 0.10 nmol·h/mL |

From patent publication US9622998B2, “Rapid-acting, blood-arginine-level-increasable oral preparation comprising citrulline and arginine” (Kyowa Hakko Bio Co., Ltd., priority 2007, dated 2017)
